Test results: patent US20060116399A1, “Diarylmethylidene piperidine derivatives, preparations thereof and uses thereof” (AstraZeneca AB, priority 2003, published 2006)
Where two headings read alike, the source gives them in different places.

Legend:
cloned human δ receptor = target: T1, cloned human δ receptor (Homo sapiens, UniProt P41143); test: δ receptor binding assay, displacement of 125I-Deltorphin II
T1 construct: expressed in transfected cells

cloned human μ receptor = target: T2, cloned human μ receptor (Homo sapiens, UniProt P35372); test: μ receptor binding assay, displacement of 125I-FK33824
T2 construct: expressed in transfected cells; host or cells: human HEK-293S cells, neomycin resistance

human δ receptor = target: T3, human δ receptor (Homo sapiens, UniProt P41143); test: GTP[γ]35S binding functional assay, HEK-293S membranes; type: biochemical
T3 construct: expressed in transfected cells
Procedure: Human 293S cells expressing cloned human κ, δ and μ receptors and neomycin resistance are grown in suspension at 37° C. and 5% CO2 in shaker flasks containing calcium-free DMEM10% FBS, 5% BCS, 0.1% Pluronic F-68, and 600 μg/ml geneticin.
Cells are pelleted and resuspended in lysis buffer (50 mM Tris, pH 7.0, 2.5 mM EDTA, with PMSF added just prior to use to 0.1 mM from a 0.1 M stock in ethanol), incubated on ice for 15 min, then homogenized with a polytron for 30 sec. The suspension is spun at 1000 g (max) for 10 min at 4° C. The supernatant is saved on ice and the pellets resuspended and spun as before. The supernatants from both spins are combined and spun at 46,000 g (max) for 30 min. The pellets are resuspended in cold Tris buffer (50 mM Tris/Cl, pH 7.0) and spun again. The final pellets are resuspended in membrane buffer (50 mM Tris, 0.32 M sucrose, pH 7.0). Aliquots (1 ml) in polypropylene tubes are frozen in dry ice/ethanol and stored at −70° C. until use. The protein concentrations are determined by a modified Lowry assay with sodium dodecyl sulfate.
The agonist activity of the compounds is measured by determining the degree to which the compounds receptor complex activates the binding of GTP to G-proteins to which the receptors are coupled. In the GTP binding assay, GTP[γ]^35S is combined with test compounds and membranes from HEK-293S cells expressing the cloned human opioid receptors or from homogenised rat or mouse brain. Agonists stimulate GTP[γ]^35S binding in these membranes. The EC50 and Emax values of compounds are determined from dose-response curves. Right shifts of the dose response curve by the delta antagonist naltrindole are performed to verify that agonist activity is mediated through delta receptors. For human δ receptor functional assays, EC50 (low) is measured when the human δ receptors used in the assay were expressed at lower levels in comparison with those used in determining EC50 (high). The Emax values were determined in relation to the standard δ agonist SNC80, i.e., higher than 100% is a compound that have better efficacy than SNC80.
Rat brain membranes are thawed at 37° C., passed 3 times through a 25-gauge blunt-end needle and diluted in Mhe GTPγS binding (50 mM Hepes, 20 mM NaOH, 100 mM NaCl, 1 mM EDTA, 5 mM MgCl2, pH 7.4, Add fresh: 1 mM DTT, 0.1% BSA). 120 μM GDP final is added membranes dilutions. The EC50 and Emax of compounds are evaluated from 10-point dose-response curves done in 300 μl with the appropriate amount of membrane protein (20 μg/well) and 100000-130000 dpm of GTPγ^5S per well (0.11-0.14 nM). The basal and maximal stimulated binding are determined in absence and presence of 3 μM SNC-80. The assay performed on HEK 293s cells stably expressing cloned Delta receptors is done in a slightly different buffer (50 mM Hepes, 20 mM NaOH, 200 mM NaCl, 1 mM EDTA, 5 mM MgCl2, pH 7.4, Add fresh: 0.5% BSA, no DTT) and with a 3 μM final conc. of GDP.

cloned human κ receptor = cloned human κ receptor (Homo sapiens, UniProt P41145); test: κ receptor binding assay, displacement of 125I-DPDYN; conditions: Table 1
[1] = Table 2, lower receptor expression, relative to SNC80, range over several compounds, read-out: Human δ % Emax (low)

T3 sequence (P41143 whole entry): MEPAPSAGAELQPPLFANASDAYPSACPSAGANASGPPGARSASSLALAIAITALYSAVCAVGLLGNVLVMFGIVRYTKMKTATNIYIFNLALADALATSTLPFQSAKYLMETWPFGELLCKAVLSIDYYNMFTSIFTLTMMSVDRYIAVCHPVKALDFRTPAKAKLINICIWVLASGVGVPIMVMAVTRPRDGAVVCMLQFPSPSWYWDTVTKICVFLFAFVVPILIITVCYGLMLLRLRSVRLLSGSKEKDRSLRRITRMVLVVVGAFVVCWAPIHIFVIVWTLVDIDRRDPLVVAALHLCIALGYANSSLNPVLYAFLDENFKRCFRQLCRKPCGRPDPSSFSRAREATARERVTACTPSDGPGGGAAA
T1 sequence (P41143 whole entry): as above
T2 sequence (P35372 whole entry): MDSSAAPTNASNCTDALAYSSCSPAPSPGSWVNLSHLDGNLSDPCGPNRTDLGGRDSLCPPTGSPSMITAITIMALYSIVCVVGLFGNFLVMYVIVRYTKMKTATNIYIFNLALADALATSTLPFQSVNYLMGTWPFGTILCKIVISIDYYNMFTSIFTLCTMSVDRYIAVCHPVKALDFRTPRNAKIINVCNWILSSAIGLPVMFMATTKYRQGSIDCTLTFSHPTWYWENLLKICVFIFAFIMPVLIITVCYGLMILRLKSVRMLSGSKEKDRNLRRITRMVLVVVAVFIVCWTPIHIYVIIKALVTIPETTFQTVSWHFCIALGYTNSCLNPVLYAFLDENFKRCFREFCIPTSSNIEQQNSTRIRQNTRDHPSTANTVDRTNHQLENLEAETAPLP
Chain of cloned human κ receptor (P41145 whole entry): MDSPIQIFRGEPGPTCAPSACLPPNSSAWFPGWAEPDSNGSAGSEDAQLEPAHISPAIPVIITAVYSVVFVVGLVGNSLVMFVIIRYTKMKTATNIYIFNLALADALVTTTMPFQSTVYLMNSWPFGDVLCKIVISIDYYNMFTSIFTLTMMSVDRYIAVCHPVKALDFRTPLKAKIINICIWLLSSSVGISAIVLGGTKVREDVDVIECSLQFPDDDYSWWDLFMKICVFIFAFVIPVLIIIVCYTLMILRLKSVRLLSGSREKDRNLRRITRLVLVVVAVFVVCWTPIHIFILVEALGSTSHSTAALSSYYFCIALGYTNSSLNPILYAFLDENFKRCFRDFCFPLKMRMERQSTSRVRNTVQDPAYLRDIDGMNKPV

CCN(CC)C(=O)c1ccc(C(=C2CCN(Cc3cccs3)CC2)c2cccc(NC(=O)OC)c2)cc1 [Compound 1, [3-[[4-[(diethylamino)carbonyl]phenyl][1-(2-thienylmethyl)-4-piperidinylidene]methyl]phenyl]-carbamic acid, methyl ester]
IC50 (cloned human δ receptor): 0.3 to 0.35 nM
IC50 (cloned human μ receptor): 62.8 to 498 nM
EC50 (human δ receptor): 1.8 to 5.97 nM
Emax (human δ receptor; [1]): 93.7 to 128%

CCN(CC)C(=O)c1ccc(C(=C2CCN(Cc3ccco3)CC2)c2cccc(NC(=O)OC)c2)cc1 [Compound 2, [3-[[4-[(diethylamino)carbonyl]phenyl][1-(2-furanylmethyl)-4-piperidinylidene]methyl]phenyl]-carbamic acid, methyl ester]
IC50 (cloned human δ receptor): 0.3 to 0.35 nM
IC50 (cloned human μ receptor): 62.8 to 498 nM
EC50 (human δ receptor): 1.8 to 5.97 nM
Emax (human δ receptor; [1]): 93.7 to 128%

CCN(CC)C(=O)c1ccc(C(=C2CCN(Cc3ccccc3)CC2)c2cccc(NC(=O)OC)c2)cc1 [Compound 3, [3-[[4-[(diethylamino)carbonyl]phenyl][1-(phenylmethyl)-4-piperidinylidene]methyl]phenyl]-carbamic acid, methyl ester]
IC50 (cloned human κ receptor): 188 nM
IC50 (cloned human δ receptor): 0.48 nM
IC50 (cloned human μ receptor): 28.7 nM
EC50 (human δ receptor): 0.62 nM
Emax (human δ receptor; Table 1, higher receptor expression, relative to standard δ agonist SNC80, read-out: Human δ % EMax (high)): 91.7%

CCN(CC)C(=O)c1ccc(C(=C2CCN(Cc3cncs3)CC2)c2cccc(NC(=O)OC)c2)cc1 [Compound 5, methyl 3-{{4-[(diethylamino)carbonyl]phenyl}[1-(1,3-thiazol-5-ylmethyl)piperidin-4-ylidene]methyl}phenylcarbamate]
IC50 (cloned human δ receptor): 0.3 to 0.35 nM
IC50 (cloned human μ receptor): 62.8 to 498 nM
EC50 (human δ receptor): 1.8 to 5.97 nM
Emax (human δ receptor; [1]): 93.7 to 128%
